Assay results as given in US5700804A, “Pharmaceutical compounds” (Xenova Limited, priority 1992, dated 1997).

Biological target: PAI-1 (Homo sapiens, UniProt P05121)
Assay: PAI chromogenic substrate assay (first S2251 assay, tPA/plasminogen system)
Assay type: biochemical
Method: In this assay, a compound is incubated with PAI-1 prior to addition to the tPA assay system. Inhibition of PAI-1 results in the production of plasmin from plasminogen. In turn, plasmin cleaves the chromogenic substrate S2251 (Kabi Vitrum) producing pNA (p-nitroaniline) which is detected spectrophotometrically at 405 nm (K. Nilsson et al, Fibrinolysis (1987) 1, 163-168).
Compounds of formula (A) were tested in a PAI chromogenic substrate assay. In the first assay (K. Nilsson, Fibrinolysis (1987) 1, 163-168) each compound was incubated with PAI-1 prior to addition to the tPA assay system. […] In turn, the plasmin cleaved the chromogenic substrate S2251 (Kabi-Vitrum) producing pNA (p-nitroaniline) which was detected spectrophotometrically at 405 nm.

Chain of PAI-1 (P05121 24-402): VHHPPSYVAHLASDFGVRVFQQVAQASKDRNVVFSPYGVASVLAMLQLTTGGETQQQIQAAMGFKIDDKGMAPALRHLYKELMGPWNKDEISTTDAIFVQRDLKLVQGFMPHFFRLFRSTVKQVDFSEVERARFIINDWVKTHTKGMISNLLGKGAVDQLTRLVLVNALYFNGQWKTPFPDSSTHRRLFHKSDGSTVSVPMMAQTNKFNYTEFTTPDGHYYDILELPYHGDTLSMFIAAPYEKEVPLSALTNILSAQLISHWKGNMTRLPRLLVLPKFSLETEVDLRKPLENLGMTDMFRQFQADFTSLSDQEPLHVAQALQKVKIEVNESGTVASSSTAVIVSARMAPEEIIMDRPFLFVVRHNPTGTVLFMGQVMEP

Inhibition of PAI-1 in the first S2251 chromogenic substrate assay (Concentration 6.25 μm) | Inhibition of PAI-1 in the first S2251 chromogenic substrate assay (Concentration 12.5 μm) | Inhibition of PAI-1 in the first S2251 chromogenic substrate assay (Concentration 25 μm) | Inhibition of PAI-1 in the first S2251 chromogenic substrate assay (Concentration 50 μm) | Inhibition of PAI-1 in the first S2251 chromogenic substrate assay (Concentration 100 μm) | Inhibition of PAI-1 in the first S2251 chromogenic substrate assay (Concentration 3.75 μm) | Inhibition of PAI-1 in the first S2251 chromogenic substrate assay (Concentration 7.5 μm) | Inhibition of PAI-1 in the first S2251 chromogenic substrate assay (Concentration 15 μm) | Inhibition of PAI-1 in the first S2251 chromogenic substrate assay (Concentration 30 μm) | Inhibition of PAI-1 in the first S2251 chromogenic substrate assay (Concentration 60 μm) | SMILES
1% | 4% | 23% | 61% | 61% |  |  |  |  |  | CC(=O)Nc1ccc(/C=c2\[nH]c(=O)/c(=C/c3c(Cl)cccc3Cl)[nH]c2=O)cc1 [Compound 40, (3Z,6Z)-3-(4-Acetamidobenzylidene)-6-(2,6-dichlorobenzylidene)-2,5-piperazinedione]
 |  |  |  |  | 2% | 1% | 18% | 75% | 76% | CC(=O)Nc1ccc(/C=c2\[nH]c(=O)/c(=C/c3ccc(F)cc3)[nH]c2=O)cc1 [Compound 72, (3Z,6Z)-3-(4-Acetamidobenzylidene)-6-(4-fluorobenzylidene)-2,5-piperazinedione]
2% | 4% | 36% | 57% | 30% |  |  |  |  |  | CC(=O)Nc1ccc(/C=c2\[nH]c(=O)/c(=C/c3ccccc3C(F)(F)F)[nH]c2=O)cc1 [Compound 78, (3Z,6Z)-6-(4-Acetamidobenzylidene)-3-(2-trifluoromethylbenzylidene)-2,5-piperazinedione]
1% | 1% | 1% | 3% | 64% |  |  |  |  |  | CC(=O)Nc1ccccc1/C=c1\[nH]c(=O)/c(=C/c2ccccc2)[nH]c1=O [Compound 38, (3Z,6Z)-3-(2-Acetamidobenzylidene)-6-benzylidene-2,5-piperazinedione]
 | 2% | 22% | 37% | 62% |  |  |  |  |  | COc1ccc(/C=c2\[nH]c(=O)/c(=C/c3ccc(C(C)(C)C)cc3)[nH]c2=O)cc1 [Compound 50, (3Z,6Z)-3-(4-methoxybenzylidene)-6-(4-tert-butylbenzylidene)-2,5-piperazinedione]
 | 1% | 25% | 52% | 62% |  |  |  |  |  | COc1ccc(/C=c2\[nH]c(=O)/c(=C/c3ccc(CS(C)(=O)=O)cc3)[nH]c2=O)cc1 [Compound 60, (3Z,6Z)-3-(4-Methoxybenzylidene)-6-(4-methylsulfonylmethylbenzylidene)-2,5-piperazinedione]
2% | 7% | 39% | 68% | 91% |  |  |  |  |  | COC(=O)COc1ccc(/C=c2\[nH]c(=O)/c(=C/c3ccccc3)[nH]c2=O)cc1 [Compound 93, 4-[(3Z,6Z)-6-Benzylidene-2,5-dioxopiperazin-3-ylidene]methylphenoxyacetic acid, methyl ester]
 | 2% | 15% | 45% | 68% |  |  |  |  |  | CC(C)Oc1ccc(/C=c2\[nH]c(=O)/c(=C/c3ccccc3)[nH]c2=O)cc1 [Compound 52, (3Z,6Z)-6-Benzylidene-3-(4-isopropoxybenzylidene)-2,5-piperazinedione]
 | 2% | 38% | 72% | 82% |  |  |  |  |  | COc1ccc(/C=c2\[nH]c(=O)/c(=C/c3ccc(CSC)cc3)[nH]c2=O)cc1 [Compound 57, (3Z,6Z)-3-(4-Methoxybenzylidene)-6-(4-methylthiomethylbenzylidene)-2,5-piperazinedione]

More lines, now with the values behind:

SMILES | Inhibition of PAI-1 in the first S2251 chromogenic substrate assay (Concentration 6.25 μm) | Inhibition of PAI-1 in the first S2251 chromogenic substrate assay (Concentration 12.5 μm) | Inhibition of PAI-1 in the first S2251 chromogenic substrate assay (Concentration 25 μm) | Inhibition of PAI-1 in the first S2251 chromogenic substrate assay (Concentration 50 μm) | Inhibition of PAI-1 in the first S2251 chromogenic substrate assay (Concentration 100 μm) | Inhibition of PAI-1 in the first S2251 chromogenic substrate assay (Concentration 3.75 μm) | Inhibition of PAI-1 in the first S2251 chromogenic substrate assay (Concentration 7.5 μm) | Inhibition of PAI-1 in the first S2251 chromogenic substrate assay (Concentration 15 μm) | Inhibition of PAI-1 in the first S2251 chromogenic substrate assay (Concentration 30 μm) | Inhibition of PAI-1 in the first S2251 chromogenic substrate assay (Concentration 60 μm)
COc1ccc(/C=c2\[nH]c(=O)/c(=C/c3ccccc3C(F)(F)F)[nH]c2=O)cc1 [Compound 70, (3Z,6Z)-3-(4-Methoxybenzylidene)-6-(2-trifluoromethylbenzylidene)-2,5-piperazinedione] |  | 4% | 21% | 78% | 94% |  |  |  |  | 
CCCCOc1ccc(/C=c2\[nH]c(=O)/c(=C/c3ccccc3)[nH]c2=O)cc1 [Compound 48, (3Z,6Z)-6-Benzylidene-3-(4-butoxybenzylidene)-2,5-piperazinedione] |  | 3% | 26% | 57% | 73% |  |  |  |  | 
CC(=O)Nc1ccc(/C=c2\[nH]c(=O)/c(=C/c3ccc(COC(C)=O)cc3)[nH]c2=O)cc1 [Compound 58, (3Z,6Z)-3-(4-Acetamidobenzylidene)-6-(4-acetoxymethylbenzylidene)-2,5-piperazinedione] |  | 1% | 1% | 31% | 60% |  |  |  |  | 
COc1ccc(/C=c2\[nH]c(=O)/c(=C/c3ccc(F)cc3F)[nH]c2=O)cc1 [Compound 69, (3Z,6Z)-3-(2,4-Difluorobenzylidene)-6-(4-methoxybenzylidene)-2,5-piperazinedione] |  | 3% | 14% | 40% | 68% |  |  |  |  | 
COC(=O)CCCC(=O)NCc1ccc(/C=c2\[nH]c(=O)/c(=C/c3ccccc3)[nH]c2=O)cc1 [Compound 94, 4-(4-[(3Z,6Z)-6-Benzylidene-2,5-dioxopiperazin-3-ylidene]methylbenzylcarbamoyl) butanoic acid, methyl ester] | 43% | 76% | 83% | 62% | 31% |  |  |  |  | 
COc1ccc(/C=c2\[nH]c(=O)/c(=C/c3c(Cl)cccc3Cl)[nH]c2=O)cc1 [Compound 29, (3Z,6Z)-3-(2,6-Dichlorobenzylidene)-6-(4-methoxybenzylidene)-2,5-piperazinedione] | 0% | 1% | 34% | 76% | 80% |  |  |  |  | 
CC(=O)Nc1ccc(/C=c2\[nH]c(=O)/c(=C/c3ccc(N(C)C)cc3)[nH]c2=O)cc1 [Compound 86, (3Z,6Z)-3-(4-Acetamidobenzylidene)-6-(4-dimethylaminobenzylidene)-2,5-piperazinedione] | 31% | 41% | 48% | 37% | 23% |  |  |  |  | 
CC(=O)Oc1ccccc1/C=c1\[nH]c(=O)/c(=C/c2ccccc2)[nH]c1=O [Compound 32, (3Z,6Z)-3-(2-Acetoxybenzylidene)-6-benzylidene-2,5-piperazinedione] | 0% | 1% | 3% | 36% | 87% |  |  |  |  | 
CC(=O)Nc1ccc(/C=c2\[nH]c(=O)/c(=C/c3ccc(CNC(=O)OC(C)(C)C)cc3)[nH]c2=O)cc1 [Compound 68, (3Z,6Z)-3-(4-Acetamidobenzylidene)-6-(4-tert-butoxycarbonylaminomethylbenzylidene)-2,5-piperazinedione] |  | 37% | 67% | 89% | 63% |  |  |  |  | 
CC(=O)Nc1ccc(/C=c2\[nH]c(=O)/c(=C/c3ccc(Cl)cc3)[nH]c2=O)cc1 [Compound 42, (3Z,6Z)-3-(4-Acetamidobenzylidene)-6-(4-chlorobenzylidene)-2,5-piperazinedione] |  |  |  |  |  | 1% | 4% | 59% | 57% | 58%
COc1ccc(/C=c2\[nH]c(=O)/c(=C/c3ccc(NC(=O)CO)cc3)[nH]c2=O)cc1 [Compound 88, (3Z,6Z)-3-(4-Hydroxyacetylaminobenzylidene)-6-(4-methoxybenzylidene)-2,5-piperazinedione] | 0% | 40% | 60% | 49% | 41% |  |  |  |  | 
